{
  "source": "ChEMBL document CHEMBL1201862",
  "about": "“PubChem BioAssay data set” (2004)",
  "key": {"HeLa": {"tested_on": "HeLa", "assay": "HeLa cell cytotoxicity, dose response, cytotoxicity control, ATP luminescence, cherry-pick samples (AID 687004)", "assay_type": "functional, cell-based", "conditions": "Homo sapiens"}, "[1]": {"assay": "HepG2 cell cytotoxicity, dose response, cytotoxicity control, dry powder samples (AID 720568)", "assay_type": "functional, cell-based"}, "Protein Wnt-3a": {"biological_target": "Protein Wnt-3a (Mus musculus, UniProt P27467)", "sequence (P27467 whole entry)": "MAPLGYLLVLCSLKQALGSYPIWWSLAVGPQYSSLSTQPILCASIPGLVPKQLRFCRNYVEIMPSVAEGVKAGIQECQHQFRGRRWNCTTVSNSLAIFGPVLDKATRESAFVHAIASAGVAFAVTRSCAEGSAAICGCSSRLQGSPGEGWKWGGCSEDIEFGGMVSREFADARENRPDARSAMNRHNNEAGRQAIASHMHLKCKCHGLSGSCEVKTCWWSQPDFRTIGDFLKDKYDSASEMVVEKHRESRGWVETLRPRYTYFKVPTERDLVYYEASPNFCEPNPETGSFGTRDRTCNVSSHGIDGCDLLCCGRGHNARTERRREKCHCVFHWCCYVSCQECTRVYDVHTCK", "assay": "SAR analysis of small molecule antagonists of Gli-SUFU in a Wnt3a luminescent reporter assay.", "assay_type": "functional"}, "[2]": {"assay": "BHK-21 cell cytotoxicity, cytotoxicity control for flavivirus guanylyltransferase probe project, secondary screen (AID 624078)", "assay_type": "functional"}, "[3]": {"assay": "T. cruzi growth inhibition in host cells, dose response, cell-based, plate reader, dry powder, set 2 (AID 652275)", "assay_type": "functional"}, "[4]": {"assay": "TRPM1 promoter luciferase reporter signal decrease, dose response, MITF inhibitor project, cell-based, SK-MEL-5, dry powder, set 8 (AID 624430)", "assay_type": "functional"}, "[5]": {"assay": "MITF: Counter assay: A375 proliferation Measured in Cell-Based System Using Plate Reader - 2084-03_Inhibitor_Dose_DryPowder_Activity_Set8.", "assay_type": "functional", "conditions": "A-375"}, "[6]": {"assay": "MITF Orthogonal Assay: SK-MEL-5 CTG Assay Measured in Cell-Based System Using Plate Reader - 2084-02_Inhibitor_Dose_DryPowder_Activity_Set7.", "assay_type": "functional"}, "NS3": {"biological_target": "NS3 (Hepatitis C virus, UniProt A3EZJ3)", "sequence (A3EZJ3 whole entry)": "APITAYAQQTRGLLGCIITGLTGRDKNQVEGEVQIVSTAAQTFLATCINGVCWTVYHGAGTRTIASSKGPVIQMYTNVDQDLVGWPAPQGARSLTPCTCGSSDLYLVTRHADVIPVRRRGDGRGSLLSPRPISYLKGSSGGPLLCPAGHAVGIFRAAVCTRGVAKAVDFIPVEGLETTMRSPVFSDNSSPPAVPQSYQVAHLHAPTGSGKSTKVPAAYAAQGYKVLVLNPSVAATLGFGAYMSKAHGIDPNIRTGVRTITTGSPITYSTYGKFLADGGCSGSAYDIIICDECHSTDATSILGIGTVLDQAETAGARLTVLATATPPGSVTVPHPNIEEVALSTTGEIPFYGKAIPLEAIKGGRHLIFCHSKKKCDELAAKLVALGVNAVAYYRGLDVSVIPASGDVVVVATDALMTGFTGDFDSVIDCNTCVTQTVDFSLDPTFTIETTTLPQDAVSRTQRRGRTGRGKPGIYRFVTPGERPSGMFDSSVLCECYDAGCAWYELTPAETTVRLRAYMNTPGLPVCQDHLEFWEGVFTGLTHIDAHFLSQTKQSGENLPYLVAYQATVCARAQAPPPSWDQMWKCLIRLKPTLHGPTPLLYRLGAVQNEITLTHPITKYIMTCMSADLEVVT", "assay": "HCV NS3 helicase inhibitor potency, dose response, biochemical, fluorescence polarization, ChemBridge library (AID 743264)"}, "Mu-type opioid receptor": {"biological_target": "Mu-type opioid receptor (Homo sapiens, UniProt P35372)", "sequence (P35372 whole entry)": "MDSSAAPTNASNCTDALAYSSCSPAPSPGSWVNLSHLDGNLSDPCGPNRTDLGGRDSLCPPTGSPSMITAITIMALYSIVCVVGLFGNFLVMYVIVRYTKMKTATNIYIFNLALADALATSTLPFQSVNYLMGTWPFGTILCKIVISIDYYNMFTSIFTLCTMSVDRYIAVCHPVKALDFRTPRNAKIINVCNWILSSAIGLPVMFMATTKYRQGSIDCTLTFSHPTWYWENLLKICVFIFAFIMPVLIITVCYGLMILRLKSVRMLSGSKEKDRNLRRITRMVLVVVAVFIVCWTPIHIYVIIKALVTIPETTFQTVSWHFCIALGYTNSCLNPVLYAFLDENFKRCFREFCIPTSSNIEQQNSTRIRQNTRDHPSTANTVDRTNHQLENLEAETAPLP", "assay": "Late-stage results from the probe development effort to identify antagonists of OPRK1: luminescence-based cell-based dose response OPRM1 counterscreen.", "assay_type": "functional"}, "[7]": {"biological_target": "Delta-type opioid receptor (Homo sapiens, UniProt P41143)", "sequence (P41143 whole entry)": "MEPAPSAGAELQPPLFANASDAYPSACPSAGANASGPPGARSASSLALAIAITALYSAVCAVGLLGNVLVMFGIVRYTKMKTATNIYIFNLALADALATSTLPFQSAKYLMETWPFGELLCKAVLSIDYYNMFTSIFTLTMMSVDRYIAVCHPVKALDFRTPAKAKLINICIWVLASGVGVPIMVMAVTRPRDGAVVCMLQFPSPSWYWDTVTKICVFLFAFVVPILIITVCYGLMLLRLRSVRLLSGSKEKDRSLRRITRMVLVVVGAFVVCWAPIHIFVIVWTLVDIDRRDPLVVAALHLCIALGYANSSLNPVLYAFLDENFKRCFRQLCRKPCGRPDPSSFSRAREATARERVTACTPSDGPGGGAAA", "assay": "Late-stage results from the probe development effort to identify antagonists of OPRK1: fluorescence-based cell-based dose response OPRD1 counterscreen.", "assay_type": "functional"}, "[8]": {"assay": "Late stage assay provider results from the probe development effort to identify selective inhibitors of heat shock protein 90 (HSP90): Absorbance-based cell proliferation assay in MCF7 cells.", "assay_type": "functional"}, "[9]": {"assay": "Late stage assay provider results from the probe development effort to identify selective inhibitors of heat shock protein 90 (HSP90): Absorbance-based cell proliferation assay in SKBR3 cells.", "assay_type": "functional", "conditions": "SK-BR-3"}, "Albumin": {"biological_target": "Albumin (Bos taurus, UniProt P02769)", "sequence (P02769 whole entry)": "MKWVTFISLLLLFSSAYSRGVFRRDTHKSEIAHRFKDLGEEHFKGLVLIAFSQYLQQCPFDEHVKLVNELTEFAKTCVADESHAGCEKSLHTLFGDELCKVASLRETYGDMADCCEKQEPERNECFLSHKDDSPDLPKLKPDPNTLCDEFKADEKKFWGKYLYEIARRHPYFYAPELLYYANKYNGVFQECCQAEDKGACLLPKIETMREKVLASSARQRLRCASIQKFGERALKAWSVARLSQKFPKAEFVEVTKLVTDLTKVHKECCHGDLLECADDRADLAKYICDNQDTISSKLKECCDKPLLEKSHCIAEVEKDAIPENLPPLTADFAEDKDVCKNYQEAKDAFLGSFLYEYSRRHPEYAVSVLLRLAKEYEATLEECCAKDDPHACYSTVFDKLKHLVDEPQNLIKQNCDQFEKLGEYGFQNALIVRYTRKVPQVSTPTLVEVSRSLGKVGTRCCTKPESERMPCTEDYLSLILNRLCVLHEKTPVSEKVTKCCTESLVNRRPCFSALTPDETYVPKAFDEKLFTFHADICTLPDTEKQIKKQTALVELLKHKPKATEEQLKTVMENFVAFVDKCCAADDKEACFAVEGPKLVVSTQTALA", "assay": "Counterscreen for inhibitors of T-cell receptor (TCR)-CD3 interaction: Fluorescence-based biochemical high throughput dose response assay to identify inhibitors of T-cell receptor (TCR)-CD3 interaction using a TAMRA-labeled BSA probe.", "assay_type": "functional"}, "Streptococcus": {"tested_on": "Streptococcus", "assay": "Group A Streptococcus viability loss, dose response, counter-screen for streptokinase expression inhibitor project, luminescence, BacTiterGlo (AID 1915);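 note: potency for reduction of bacterial viability or growth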", "assay_type": "functional, organism-based"}, "[10]": {"tested_on": "Streptococcus sp. 'group A'", "assay": "growth inhibition of control SK(-) GAS strain, dose response, counter-screen for streptokinase expression inhibitor project, luminescence, kanamycin, BacTiterGlo, confirmation (AID 1900)", "assay_type": "functional, organism-based"}, "[11]": {"biological_target": "1-phosphatidylinositol 4,5-bisphosphate phosphodiesterase beta-3 (Homo sapiens, UniProt Q01970)", "sequence (Q01970 whole entry)": "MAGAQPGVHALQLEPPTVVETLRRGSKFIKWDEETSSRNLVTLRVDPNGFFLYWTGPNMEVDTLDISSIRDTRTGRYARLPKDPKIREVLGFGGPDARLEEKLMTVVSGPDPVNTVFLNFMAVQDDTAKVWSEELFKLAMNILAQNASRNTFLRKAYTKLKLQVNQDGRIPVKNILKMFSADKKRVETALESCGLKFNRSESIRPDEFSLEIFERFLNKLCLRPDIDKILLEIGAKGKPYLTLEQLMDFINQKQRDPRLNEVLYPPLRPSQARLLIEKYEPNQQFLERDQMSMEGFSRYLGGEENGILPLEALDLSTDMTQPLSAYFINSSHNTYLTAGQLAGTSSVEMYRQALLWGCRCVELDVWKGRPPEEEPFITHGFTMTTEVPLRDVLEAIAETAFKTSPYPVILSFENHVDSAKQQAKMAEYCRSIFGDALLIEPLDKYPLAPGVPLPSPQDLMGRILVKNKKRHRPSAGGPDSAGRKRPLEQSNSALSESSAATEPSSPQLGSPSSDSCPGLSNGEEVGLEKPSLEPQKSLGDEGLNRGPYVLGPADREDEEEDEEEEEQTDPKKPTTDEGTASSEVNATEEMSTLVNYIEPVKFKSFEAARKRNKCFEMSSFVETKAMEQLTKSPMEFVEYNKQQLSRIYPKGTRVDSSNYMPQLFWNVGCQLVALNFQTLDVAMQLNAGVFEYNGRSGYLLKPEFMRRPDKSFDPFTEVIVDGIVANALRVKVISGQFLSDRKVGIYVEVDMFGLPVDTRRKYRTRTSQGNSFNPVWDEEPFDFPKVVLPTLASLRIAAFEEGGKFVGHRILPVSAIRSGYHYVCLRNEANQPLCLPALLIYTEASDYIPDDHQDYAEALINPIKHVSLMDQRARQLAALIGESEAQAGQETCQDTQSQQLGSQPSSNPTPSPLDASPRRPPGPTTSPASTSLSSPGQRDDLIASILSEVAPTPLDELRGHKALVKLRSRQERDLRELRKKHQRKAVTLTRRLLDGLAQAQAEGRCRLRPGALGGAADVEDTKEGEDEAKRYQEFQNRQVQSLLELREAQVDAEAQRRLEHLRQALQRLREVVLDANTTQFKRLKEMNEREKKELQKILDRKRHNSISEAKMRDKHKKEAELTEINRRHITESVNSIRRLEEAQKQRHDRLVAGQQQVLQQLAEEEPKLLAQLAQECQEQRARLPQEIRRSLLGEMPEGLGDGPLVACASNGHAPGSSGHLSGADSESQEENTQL", "assay": "Fluorescence-based biochemical high throughput dose response assay to identify inhibitors of phospholipase C isozymes (PLC-B3)."}, "[12]": {"biological_target": "1-phosphatidylinositol 4,5-bisphosphate phosphodiesterase gamma-1 (Homo sapiens, UniProt P19174)", "sequence (P19174 whole entry)": "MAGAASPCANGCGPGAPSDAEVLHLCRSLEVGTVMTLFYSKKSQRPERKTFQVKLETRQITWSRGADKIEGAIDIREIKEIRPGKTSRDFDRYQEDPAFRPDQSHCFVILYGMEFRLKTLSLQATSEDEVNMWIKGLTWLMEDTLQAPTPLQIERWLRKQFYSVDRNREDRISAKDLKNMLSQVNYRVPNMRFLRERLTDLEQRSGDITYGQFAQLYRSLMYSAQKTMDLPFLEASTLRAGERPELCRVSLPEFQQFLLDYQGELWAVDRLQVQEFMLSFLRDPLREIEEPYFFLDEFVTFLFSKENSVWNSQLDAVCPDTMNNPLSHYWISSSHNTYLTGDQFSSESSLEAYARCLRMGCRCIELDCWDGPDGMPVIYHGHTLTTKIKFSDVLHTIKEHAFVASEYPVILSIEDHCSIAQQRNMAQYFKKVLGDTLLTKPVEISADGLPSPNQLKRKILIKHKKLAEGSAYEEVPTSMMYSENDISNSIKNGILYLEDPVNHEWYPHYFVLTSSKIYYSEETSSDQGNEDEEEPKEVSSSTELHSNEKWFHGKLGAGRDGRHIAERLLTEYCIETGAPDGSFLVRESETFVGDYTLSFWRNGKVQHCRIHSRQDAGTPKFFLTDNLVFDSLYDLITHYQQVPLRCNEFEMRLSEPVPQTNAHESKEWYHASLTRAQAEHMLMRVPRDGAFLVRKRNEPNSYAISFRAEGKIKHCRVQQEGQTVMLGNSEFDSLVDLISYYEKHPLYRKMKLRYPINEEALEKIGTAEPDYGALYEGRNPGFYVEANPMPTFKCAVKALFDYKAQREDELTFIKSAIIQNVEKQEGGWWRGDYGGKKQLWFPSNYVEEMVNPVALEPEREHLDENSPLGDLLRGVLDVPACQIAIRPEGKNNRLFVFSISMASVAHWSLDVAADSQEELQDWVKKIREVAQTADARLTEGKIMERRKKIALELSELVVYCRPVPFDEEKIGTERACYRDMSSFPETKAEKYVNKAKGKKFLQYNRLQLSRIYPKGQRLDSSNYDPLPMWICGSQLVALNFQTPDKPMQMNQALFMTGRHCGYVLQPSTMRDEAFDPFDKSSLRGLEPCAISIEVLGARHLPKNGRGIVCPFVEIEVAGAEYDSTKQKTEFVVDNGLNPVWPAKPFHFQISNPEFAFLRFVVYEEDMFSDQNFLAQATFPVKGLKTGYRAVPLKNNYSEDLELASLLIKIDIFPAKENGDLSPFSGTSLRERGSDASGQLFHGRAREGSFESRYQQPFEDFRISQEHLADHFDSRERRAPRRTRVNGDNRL", "assay": "Counterscreen for inhibitors of phospholipase C isozymes (PLC-B3): Fluorescence-based biochemical high throughput dose response assay to identify inhibitors of phospholipase C isozymes (PLC-gamma1)."}},
  "note": "Active and inactive are the calls of the source.",
  "data": [
    {"smiles": "C/C=C/c1ccc2n(c1=O)C[C@H]1[C@H](CO)[C@@H](C(=O)N3CCc4ccccc4C3)N(C(=O)C3CC3)[C@@H]21.C/C=C\\c1ccc2n(c1=O)C[C@H]1[C@H](CO)[C@@H](C(=O)N3CCc4ccccc4C3)N(C(=O)C3CC3)[C@@H]21", "values": [
      {"measurement": "AC50", "setting": "HeLa", "value": "> 52 µM (inactive)"}
    ]},
    {"smiles": "CC(=O)N[C@H]1[C@@H](O[C@@H]2OC(C[C@@H](O)C3O[C@@H](n4ccc(=O)[nH]c4=O)[C@H](O)[C@@H]3O)[C@H](O)[C@H](O)[C@H]2NC(=O)/C=C/CCCCCCCCCCC(C)C)O[C@H](CO)[C@@H](O)[C@@H]1O", "note": "(stereo partly drawn)", "values": [
      {"measurement": "AC50", "setting": "[1]", "value": "13.5 µM (active)"}
    ]},
    {"smiles": "COc1cc(OC)cc(C(=O)Nc2cc(N(C)C)ncn2)c1", "values": [
      {"measurement": "IC50", "setting": "Protein Wnt-3a", "value": "> 21.8 µM (inactive)"}
    ]},
    {"smiles": "O=S(=O)(Nc1cc(SCc2ccccc2)c(O)c2ccccc12)c1ccc(Cl)cc1", "values": [
      {"measurement": "CC50", "setting": "[2]", "value": "15 µM (active)"}
    ]},
    {"smiles": "CC(C)N1CC2(CN(Cc3ccccc3F)C2)Oc2c(NC(=O)c3ccncc3)cccc2C1=O", "values": [
      {"measurement": "AC50", "setting": "[3]", "value": "0.747 µM (active)"}
    ]},
    {"smiles": "CCN1CCN(C2=C(Nc3ccc(Br)cc3)C(=O)c3ccccc3C2=O)CC1", "values": [
      {"measurement": "AC50", "setting": "[4]", "value": "10.7 µM (active)"},
      {"measurement": "AC50", "setting": "[5]", "value": "29.3 µM (active)"},
      {"measurement": "AC50", "setting": "[6]", "value": "8.61 µM (active)"}
    ]},
    {"smiles": "O=C1NC(=S)N(c2ccccc2F)C(=O)C1=Cc1ccco1", "values": [
      {"measurement": "IC50", "setting": "NS3", "value": "3.35 µM (inactive)"}
    ]},
    {"smiles": "COC(=O)c1cc(Br)cnc1N1CCC(NC2CCCC(O)C2)CC1", "note": "(stereo not drawn)", "values": [
      {"measurement": "IC50", "setting": "Mu-type opioid receptor", "value": "16 µM (inactive)"},
      {"measurement": "IC50", "setting": "[7]", "value": "> 50 µM (inactive)"}
    ]},
    {"smiles": "O=C1OC(=O)/C(=C\\Nc2ccccc2F)C=C1Br", "values": [
      {"measurement": "IC50", "setting": "[8]", "value": "13.6 µM (inactive)"},
      {"measurement": "IC50", "setting": "[9]", "value": "13.3 µM (inactive)"}
    ]},
    {"smiles": "C/C(=N\\NC(=O)c1ccc(-c2ccccc2)cc1)C1C(=O)c2ccccc2C1=O", "values": [
      {"measurement": "IC50", "setting": "Albumin", "value": "> 94.1 µM (inactive)"},
      {"measurement": "EC50", "setting": "Streptococcus", "value": "4.32 µM (active)"},
      {"measurement": "EC50", "setting": "[10]", "value": "0.557 µM (active)"}
    ]},
    {"smiles": "Nc1ncnc2c1ncn2[C@@H]1O[C@H](COP(=O)(O)CP(=O)(O)O)[C@@H](O)[C@H]1O", "note": "[PHOSPHOMETHYLPHOSPHONIC ACID ADENOSYL ESTER]", "values": [
      {"measurement": "IC50", "setting": "[11]", "value": "> 122 µM (inactive)"},
      {"measurement": "IC50", "setting": "[12]", "value": "2.2 µM (active)"}
    ]}
  ]
}
